Results: ChEMBL document CHEMBL1201862, “PubChem BioAssay data set” (2004)
Active and inactive are the calls of the source.

Key:
[1] = target: T1, Aryl hydrocarbon receptor (Homo sapiens, UniProt P35869); assay: Luminescence-based cell-based high throughput dose response assay for activators of the Aryl Hydrocarbon Receptor (AHR). [Related pubchem assays: 2796 (Primary screen (AHR activators in singlicate)), 2845 (Confirmation screen (AHR activators in triplicate)), 434939 (Counterscreen (PXR activators in triplicate)), 2804 (Summary (AHR activators))]; assay type: ADME
T1 sequence (P35869 whole entry): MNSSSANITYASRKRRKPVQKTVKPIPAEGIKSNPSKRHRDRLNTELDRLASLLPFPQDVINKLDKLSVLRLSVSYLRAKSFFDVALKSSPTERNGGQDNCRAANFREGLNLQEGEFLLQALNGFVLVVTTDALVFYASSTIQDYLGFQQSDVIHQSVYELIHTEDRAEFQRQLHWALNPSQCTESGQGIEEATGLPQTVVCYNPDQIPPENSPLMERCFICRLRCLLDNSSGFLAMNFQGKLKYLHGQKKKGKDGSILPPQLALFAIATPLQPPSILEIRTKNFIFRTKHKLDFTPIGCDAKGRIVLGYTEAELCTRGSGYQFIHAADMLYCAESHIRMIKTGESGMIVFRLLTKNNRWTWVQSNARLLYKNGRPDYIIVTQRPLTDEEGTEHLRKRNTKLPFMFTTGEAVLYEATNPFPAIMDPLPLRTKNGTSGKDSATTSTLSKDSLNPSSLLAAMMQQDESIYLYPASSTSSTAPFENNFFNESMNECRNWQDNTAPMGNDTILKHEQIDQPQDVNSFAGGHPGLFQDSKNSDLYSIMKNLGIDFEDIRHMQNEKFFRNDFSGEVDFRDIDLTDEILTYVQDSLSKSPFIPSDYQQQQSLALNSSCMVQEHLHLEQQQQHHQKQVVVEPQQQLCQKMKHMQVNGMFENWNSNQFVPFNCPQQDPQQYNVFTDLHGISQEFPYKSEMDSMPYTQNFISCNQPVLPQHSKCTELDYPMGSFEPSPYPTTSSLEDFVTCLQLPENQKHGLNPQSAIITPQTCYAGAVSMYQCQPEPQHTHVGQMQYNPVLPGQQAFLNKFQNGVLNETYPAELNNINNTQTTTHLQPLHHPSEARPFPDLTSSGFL

[2] = THP-1 cell cytotoxicity, dose response, cytotoxicity control for Vif-APOBEC3G degradation inhibitor project, THP-1 cells (AID 1117359); assay type: functional; settings: Human immunodeficiency virus 1, THP-1
[3] = Luminescence Cell-Based Dose Confirmation HTS to Identify Activators of 5'UTR Stem-Loop Driven Alpha-Synuclein mRNA Translation in H4 Neuroglioblastoma Cells. [Related pubchem assays: 1829 (Project Summary), 1814 (Primary HTS)]; assay type: functional
[4] = Luminescence Cell-Based Dose Response HTS to Identify Activators of Luciferase Translation or Activity in H4 […] Cells. [Related pubchem assays: 1829 (Project Summary), 1814 (Primary HTS)]; assay type: functional
[5] = cells; assay type: functional, cell-based
[6] = tested on: H4; assay: Luminescence Cell-Based Dose Response HTS to Identify Activators of 5'UTR Stem-Loop Driven Prion Protein mRNA Translation in H4 Neuroglioblastoma Cells. [Related pubchem assays: 1829 (Project Summary), 1814 (Primary HTS)]; assay type: functional; settings: Homo sapiens
[7] = cells; assay type: functional, cell-based; remark: listed apart in the source
[8] = target: T2, Caspase-3 (Homo sapiens, UniProt P42574); assay type: functional;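 note: Dose-response selectivity test against caspase-3 for candidate inhibitors of sentrin-specific proteases (SENPs)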
T2 sequence (P42574 whole entry): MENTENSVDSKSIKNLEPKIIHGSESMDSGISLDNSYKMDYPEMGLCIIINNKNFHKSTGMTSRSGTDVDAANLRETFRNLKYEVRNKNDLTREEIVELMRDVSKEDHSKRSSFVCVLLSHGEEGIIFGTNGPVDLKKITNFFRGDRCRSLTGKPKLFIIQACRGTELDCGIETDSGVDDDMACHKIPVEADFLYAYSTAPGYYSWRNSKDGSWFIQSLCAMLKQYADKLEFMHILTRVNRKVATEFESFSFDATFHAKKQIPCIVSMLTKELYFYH

[9] = target: T3, Sentrin-specific protease 7 (Homo sapiens, UniProt Q9BQF6); assay type: functional;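 note: Luminescence-based dose-response confirmation of ultra-high-throughput screening hits, measuring inhibition of SENP7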
T3 sequence (Q9BQF6 whole entry): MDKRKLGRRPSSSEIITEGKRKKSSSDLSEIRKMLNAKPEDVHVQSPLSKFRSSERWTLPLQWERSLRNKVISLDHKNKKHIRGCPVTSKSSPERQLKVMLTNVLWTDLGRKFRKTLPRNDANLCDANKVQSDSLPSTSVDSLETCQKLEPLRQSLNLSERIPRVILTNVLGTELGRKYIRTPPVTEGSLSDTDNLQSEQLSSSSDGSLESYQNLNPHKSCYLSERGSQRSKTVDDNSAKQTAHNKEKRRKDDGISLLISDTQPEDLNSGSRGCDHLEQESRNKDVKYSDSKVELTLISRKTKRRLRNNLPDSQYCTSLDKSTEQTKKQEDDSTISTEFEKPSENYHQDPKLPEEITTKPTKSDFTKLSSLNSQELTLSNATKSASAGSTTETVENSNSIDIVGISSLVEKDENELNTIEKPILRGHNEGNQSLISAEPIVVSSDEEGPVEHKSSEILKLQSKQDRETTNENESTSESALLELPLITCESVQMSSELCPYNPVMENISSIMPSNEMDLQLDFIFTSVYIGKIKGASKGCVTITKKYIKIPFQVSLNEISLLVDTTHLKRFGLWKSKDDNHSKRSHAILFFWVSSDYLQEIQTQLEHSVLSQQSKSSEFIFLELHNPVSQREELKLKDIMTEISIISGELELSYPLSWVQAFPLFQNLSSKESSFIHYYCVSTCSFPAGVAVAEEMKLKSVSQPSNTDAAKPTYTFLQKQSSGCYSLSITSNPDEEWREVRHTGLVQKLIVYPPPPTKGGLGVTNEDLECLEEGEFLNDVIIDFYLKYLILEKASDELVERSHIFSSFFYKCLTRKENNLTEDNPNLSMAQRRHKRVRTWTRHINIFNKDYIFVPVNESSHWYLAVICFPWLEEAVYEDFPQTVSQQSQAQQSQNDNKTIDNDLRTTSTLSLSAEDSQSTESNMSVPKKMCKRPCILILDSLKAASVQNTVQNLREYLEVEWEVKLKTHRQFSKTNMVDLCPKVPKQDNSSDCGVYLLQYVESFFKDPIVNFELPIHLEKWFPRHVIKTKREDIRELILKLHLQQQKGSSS

[10] = target: Nonstructural protein 1 (Influenza A virus, UniProt Q194T2); assay type: functional, Influenza A virus (A/California/07/2009(H1N1))
Nonstructural protein 1, sequence (Q194T2 whole entry): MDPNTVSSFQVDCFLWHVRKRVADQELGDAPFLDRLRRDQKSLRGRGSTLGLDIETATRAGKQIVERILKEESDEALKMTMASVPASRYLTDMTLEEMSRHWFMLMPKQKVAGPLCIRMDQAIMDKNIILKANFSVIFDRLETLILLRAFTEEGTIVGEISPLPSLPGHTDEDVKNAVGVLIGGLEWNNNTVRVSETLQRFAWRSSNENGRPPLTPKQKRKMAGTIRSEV

[11] = target: T4, Sentrin-specific protease 6 (Homo sapiens, UniProt Q9GZR1); assay type: functional;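 note: Luminescence-based dose-response confirmatory assay of SENP6 inhibition, following up an ultra-high-throughput screen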
T4 sequence (Q9GZR1 whole entry): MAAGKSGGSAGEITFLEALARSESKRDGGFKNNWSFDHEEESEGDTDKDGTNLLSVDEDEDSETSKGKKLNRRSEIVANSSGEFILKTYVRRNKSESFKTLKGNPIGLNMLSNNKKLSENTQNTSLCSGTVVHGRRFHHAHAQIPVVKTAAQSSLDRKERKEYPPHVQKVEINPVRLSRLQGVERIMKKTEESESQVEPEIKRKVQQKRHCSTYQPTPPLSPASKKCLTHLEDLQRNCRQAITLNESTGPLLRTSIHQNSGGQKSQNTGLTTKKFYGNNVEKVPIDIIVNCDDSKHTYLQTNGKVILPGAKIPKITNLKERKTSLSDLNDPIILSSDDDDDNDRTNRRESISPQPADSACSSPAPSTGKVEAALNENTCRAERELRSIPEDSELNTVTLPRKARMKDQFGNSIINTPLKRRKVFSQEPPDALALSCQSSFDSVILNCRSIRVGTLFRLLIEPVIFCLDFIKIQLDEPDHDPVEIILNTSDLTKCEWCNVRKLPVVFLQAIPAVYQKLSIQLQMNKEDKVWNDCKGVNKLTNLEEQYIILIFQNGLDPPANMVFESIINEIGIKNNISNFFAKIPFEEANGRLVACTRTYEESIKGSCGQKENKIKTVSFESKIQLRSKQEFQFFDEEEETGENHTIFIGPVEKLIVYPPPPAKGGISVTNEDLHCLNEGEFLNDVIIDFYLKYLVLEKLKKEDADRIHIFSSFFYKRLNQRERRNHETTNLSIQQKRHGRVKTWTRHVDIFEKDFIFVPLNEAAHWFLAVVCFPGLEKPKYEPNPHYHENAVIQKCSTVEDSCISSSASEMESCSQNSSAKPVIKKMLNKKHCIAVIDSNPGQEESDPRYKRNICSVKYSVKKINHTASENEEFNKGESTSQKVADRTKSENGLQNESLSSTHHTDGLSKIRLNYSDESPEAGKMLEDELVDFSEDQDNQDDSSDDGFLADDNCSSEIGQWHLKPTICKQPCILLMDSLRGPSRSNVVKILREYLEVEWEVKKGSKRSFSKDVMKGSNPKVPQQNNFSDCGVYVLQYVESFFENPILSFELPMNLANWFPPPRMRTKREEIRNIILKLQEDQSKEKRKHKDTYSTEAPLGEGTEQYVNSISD

[12] = target: T5, Sentrin-specific protease 8 (Homo sapiens, UniProt Q96LD8); assay type: functional;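 note: luminescence read-out of SENP8 inhibition, dose-response confirmation following an ultra-high-throughput screen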
T5 sequence (Q96LD8 whole entry): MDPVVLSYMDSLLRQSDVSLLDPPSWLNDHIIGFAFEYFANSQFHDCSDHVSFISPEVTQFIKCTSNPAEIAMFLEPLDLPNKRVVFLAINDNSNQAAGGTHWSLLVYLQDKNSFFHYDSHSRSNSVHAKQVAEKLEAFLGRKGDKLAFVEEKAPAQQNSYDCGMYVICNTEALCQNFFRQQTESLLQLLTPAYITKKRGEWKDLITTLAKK

[13] = target: T6, Oxysterols receptor LXR-beta (Homo sapiens, UniProt P55055); assay type: functional, cell-based;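 note: Cell-based luminescence dose-response assay of agonist activity at LXR, run as a confirmatory counterscreen to a daf-12 agonist screen; HEK293 cells with Gal4-LXR fusion and GAL4-driven luciferase reporter; agonist potency from rising luciferase signal of a Gal4-LXR reporter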
T6 sequence (P55055 whole entry): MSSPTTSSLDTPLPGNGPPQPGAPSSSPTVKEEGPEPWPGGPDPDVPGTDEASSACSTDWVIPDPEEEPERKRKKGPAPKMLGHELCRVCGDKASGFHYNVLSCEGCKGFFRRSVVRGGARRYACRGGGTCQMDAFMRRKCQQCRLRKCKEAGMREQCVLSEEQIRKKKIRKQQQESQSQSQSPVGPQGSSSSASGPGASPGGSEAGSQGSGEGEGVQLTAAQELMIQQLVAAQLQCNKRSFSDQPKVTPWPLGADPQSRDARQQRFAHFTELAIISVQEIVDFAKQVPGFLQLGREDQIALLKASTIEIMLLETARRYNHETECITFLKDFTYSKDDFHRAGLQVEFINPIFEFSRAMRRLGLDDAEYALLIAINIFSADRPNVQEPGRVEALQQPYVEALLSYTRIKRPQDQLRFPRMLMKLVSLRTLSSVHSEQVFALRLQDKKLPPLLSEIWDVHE

[14] = cells
[15] = inhibitors of intracellular T. cruzi replication, confirmation, NIH3T3 host cells, beta-gal luminescence (AID 2044); assay type: functional, cell-based;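 note: intracellular parasites grown in NIH/3T3 mouse fibroblasts as host cells; luminescent beta-galactosidase reporter signal from transgenic T. cruzi replicating inside host cells; inhibitors lower the luminescence signal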
[16] = cytotoxicity toward NIH3T3 fibroblasts, dose response, counter-screen, cell-based, ATP luminescence, mouse fibroblasts (AID 2010); assay type: functional;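 note: cells exposed to compound for about 90 hours before reading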
[17] = cells; remark: listed apart in the source
[18] = target: Kallikrein-7 (Homo sapiens, UniProt P49862); assay: Fluorescence Intensity-based biochemical primary high throughput dose response assay to identify activators of kallikrein-7 (K7) zymogen.
Kallikrein-7, sequence (P49862 whole entry): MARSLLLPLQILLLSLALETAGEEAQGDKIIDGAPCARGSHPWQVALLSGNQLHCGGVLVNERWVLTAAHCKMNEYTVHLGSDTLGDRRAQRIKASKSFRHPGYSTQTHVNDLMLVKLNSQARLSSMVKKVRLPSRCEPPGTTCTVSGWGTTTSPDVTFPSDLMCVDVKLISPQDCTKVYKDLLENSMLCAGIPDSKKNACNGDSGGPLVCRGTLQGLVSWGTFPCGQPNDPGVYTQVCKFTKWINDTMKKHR

[19] = P. falciparum Dd2 growth inhibitors, dose response, SYBR Green, dry powder samples, set 9 (AID 1159568); assay type: functional, cell-based

COc1cccc(C(=O)O/N=C(\N)c2ccc([N+](=O)[O-])cc2)c1
EC50 [1]: 3.57 µM (active)

Clc1ccc(CNc2ccc(CNc3nc[nH]n3)cc2)c(Cl)c1
CC50 [2]: > 40 µM (active)

c1ccc(N=Nc2ccc3cccccc2-3)cc1
EC50 [3]: 771 nM (active)
EC50 [4]: 1.1 µM (active)
EC50 [5]: > 350 µM (not active)
EC50 [6]: > 120 µM (not active)
EC50 [7]: 6.29 µM (active)
IC50 [8]: 24.5 µM (active)
IC50 [9]: 4.59 µM (active)
IC50 [10]: 10.8 µM (active)
IC50 [11]: 13.9 µM (active)
IC50 [12]: 22.3 µM (active)
EC50 [13]: > 67.5 µM (inactive)
EC50 [14]: > 67.5 µM (inactive)

COc1ccc(C)cc1N=C(N)Nc1nc(C)cc(C)n1
EC50 [1]: 3.95 µM (active)

O=C(CCC1CCCN(Cc2ccc3c(c2)CCO3)C1)NCc1ccc(F)c(F)c1 (centres undefined)
EC50 [15]: < 100 nM (active)
EC50 [16]: > 60 µM (not active)
EC50 [17]: 11 nM (active)

Cc1occc1C(=O)NC1CCCN(Cc2ccc(CC(C)C)cc2)C1 (centres undefined)
EC50 [15]: < 100 nM (active)
EC50 [16]: > 60 µM (not active)
EC50 [17]: 73 nM (active)

O=C(CCc1c[nH]c2ccccc12)N1CCN(c2ccc(O)cc2)CC1
CC50 [2]: > 40 µM (active)

CCOC(=O)c1c(C)nn(Cc2cccc(Cl)c2)c1N
CC50 [2]: > 40 µM (active)

COc1ccc(NC(=O)c2ccc(NC(=O)CSc3nc(N)cc(O)n3)cc2)cc1
EC50 [18]: 22.4 µM (inactive)

COC(=O)C1=NN(c2ccccc2)C2C(=O)N(c3ccccc3OC)C(=O)C12 (centres undefined)
EC50 [18]: > 69.5 µM (inactive)

CCCc1cc(NCCOCCO)n2c(nc3ccccc32)c1C#N
EC50 [18]: > 2.57 µM (active)

C[C@@H]1CN([C@H](C)CO)C(=O)c2ccccc2-c2ccccc2CO[C@H]1CN(C)C(=O)[C@H](Cc1ccccc1)N(C)C
AC50 [19]: 11.9 µM (active)

CCCC#Cc1ccc2c(c1)O[C@H](CN(C)Cc1ccccn1)[C@H](C)CN([C@@H](C)CO)S2(=O)=O
AC50 [19]: 3.94 µM (active)

CC(=O)Nc1cc(-c2ccc(Cl)cc2)n[nH]1
EC50 [1]: 1.8 µM (active)
